One compound from patent US12522836B2, “Nonhuman animal and use for same” (Inter-University Research Institute Corporation Research …, priority 2019, dated 2026) can be followed below.

For series [1], the target named is T1, OsTIR1(F74G)/mAID-EGFP-NLS expressing cell (Oryza sativa subsp. japonica, UniProt Q7XVM8, F74G).
T1 construct: expressed in transfected cells; host or cells: HCT116
Briefly: FACS analysis of degradation of mAID-EGFP-NLS after addition of auxin analog. In kind it is cell-based, human. The following applies: Example 2; 50 nM, 100 nM, 500 nM or 1 μM, 24 hours; compared with OsTIR1(WT) cell plus auxin. The method, then:
An HCT116 cell (human colon adenocarcinoma-derived cell) having DNA in which an OsTIR1(WT) gene or OsTIR1(F74G) gene and an mAID-EGFP (green fluorescent protein)-NLS (nuclear localization signal) gene were encoded through a P2A sequence inserted onto a chromosome by a transposon (hereinafter, referred to as “OsTIR1(WT)/mAID-EGFP-NLS expressing cell” or “OsTIR1(F74G)/mAID-EGFP-NLS expressing cell”) was prepared (refer to FIG. 1).
The auxin analog (concentration in culture medium: […]) was added to the OsTIR1(F74G)/mAID-EGFP-NLS expressing cell and cultured for 24 hours. In addition, as a control, a cell containing an auxin added to the OsTIR1(WT)/mAID-EGFP-NLS expressing cell was also prepared.
After 24 hours from the addition of the auxin analog, the cells were collected, and FACS analysis was performed.
An HCT116 cell (human colon adenocarcinoma-derived cell) in which a plasmid containing an OsTIR1(WT) gene or OsTIR1(F74G) gene was introduced and an mAID-EGFP (green fluorescent protein)-NLS (nuclear localization signal) gene was inserted onto a chromosome (hereinafter, referred to as “OsTIR1(WT)/mAID-EGFP-NLS expressing cell” or “OsTIR1(F74G)/mAID-EGFP-NLS expressing cell”) was prepared (refer to FIG. 1).
The auxin analog (concentration in culture medium: 0, 50 nM, 100 nM, 500 nM or 1 μM) was added to the OsTIR1(F74G)/mAID-EGFP-NLS expressing cell and cultured for 24 hours. […]
In general terms: A flow cytometer gives signals particle by particle.

Series [2] deals with T2, OsTIR1(F74G)/DHC1-mAID-Clover expressing cell (Oryza sativa subsp. japonica, UniProt Q7XVM8, F74G).
T2 construct: expressed in transfected cells; host or cells: HCT116 (OsTIR1 at AAVS1 locus; knock-in at the endogenous DHC1 gene)
The experiment in a line: Degradation induction test of DHC1 (microscopy, Western blotting). The format is cell-based, human. The text has this:
In the HCT116 cell, an OsTIR1(WT) gene or OsTIR1(F74G) gene was introduced into an AAVS1 gene locus, which is a safe harbor site, using a CRISPR/Cas system, and an OsTIR1(WT)-expressed HCT116 cell or OsTIR1(F74G)-expressed HCT116 cell was constructed.
A plasmid vector having mAID, clover and a neomycin resistance gene and having a homologous sequence with respect to a DHC1 gene so as to sandwich mAID and the neomycin resistance gene was introduced into the OsTIR1(WT)-expressed HCT116 cell or OsTIR1(F74G)-expressed HCT116 cell using a CRISPR/Cas9 system, and homologous recombination with the endogenous DHC1 gene was performed. Next, after selection by G418, the formed colony was dyed using crystal violet. “DHC1” is the abbreviation for dynein heavy chain 1.
A degradation induction test of DHC1 was performed using the HCT116 cell expressing OsTIR1(F74G) on which homologous recombination had been performed in the above-described section 2 (hereinafter, referred to as “OsTIR1(F74G)/DHC1-mAID-Clover expressing cell”).
The compound indicated by the formula (I-2) (also referred to as 5-Ph-IAA) was added to the OsTIR1(F74G)/DHC1-mAID-Clover expressing cell, and the appearance of the cell after 24 hours was observed (FIG. 4(A)).
Furthermore, the degradation of DHC1 was confirmed by Western blotting (FIG. 4(B)).

The target in another series is T3, mAID-EGFP-CENPH (Oryza sativa subsp. japonica, UniProt Q7XVM8, F74G).
T3 construct: P2A linker (self-cleaving; remnant); expressed in transfected cells; host or cells: HeLa
Briefly: Western blotting of mAID-EGFP-CENPH degradation in HeLa cell (transposon vector + CRISPR-KO system). In kind it is cell-based, human. The conditions noted are these: anti-CENPH antibody, endogenous CENPH knocked out. The text has this: (§1) In this degradation system, (1) a transposon vector in which an OsTIR1(F74G) gene and an mAID-target gene are connected by a P2A linker gene and (2) a CRISPR-KO vector for knocking out an endogenous target gene containing gRNA and a Cas9 gene are contained.
(§2) In this degradation system, the OsTIR1(F74G) gene and the mAID-target gene in a genome are integrated by the transposon vector, and an endogenous target gene is knocked out by the CRISPR-KO vector.
(§3) The transposon vector in which an OsTIR1(F74G) gene and an mAID-EGFP-CENPH or mAID-EGFP-POLD1 target gene were connected by a P2A linker gene was constructed, and this vector was introduced into a HeLa cell together with the CRISPR-KO vector targeting an endogenous CENPH or POLD1 gene. 5-Ph-IAA was added to such a cell, and the degradation of the target protein was confirmed by Western blotting (FIG. 6).

Another series has as its target T4, mAID-EGFP-POLD1 (Oryza sativa subsp. japonica, UniProt Q7XVM8, F74G).
T4 construct: P2A linker (self-cleaving; remnant); expressed in transfected cells; host or cells: HeLa
The experiment in a line: Western blotting of mAID-EGFP-POLD1 degradation in HeLa cell (transposon vector + CRISPR-KO system). In kind it is cell-based, human. The following applies: anti-POLD1 antibody, clones #1 to #3, endogenous POLD1 knocked out.
Source text: as §1, §2, §3
On the technique in general: A western blot detects proteins with antibodies after separation by electrophoresis.

A short description of series [3]: Toxicity evaluation in mice (body weight). In kind it is in vivo. The conditions noted are these: 1, 3 and 10 mg/kg intraperitoneally daily for 1 week. Here is the method: Toxicity was evaluated by intraperitoneally administering 0, 1, 3, and 10 mg/kg of 5-Ph-IAA daily for 1 week. As shown in FIG. 7(B), a change in body weight of the mice which had been subjected to the administration was not observed.

Series [4] has as its system HCT116 cells expressing OsTIR1(F74G). Briefly: Control xenograft of HCT116 cells expressing OsTIR1(F74G) in nude mice. The format is in vivo. The following applies: 1, 3 and 10 mg/kg intraperitoneally daily, day 7 to day 14; control without degron-tagged target.
Another series addresses T5, mAID-BRD4 xenografts (Oryza sativa subsp. japonica, UniProt Q7XVM8, F74G).
T5 construct: expressed in transfected cells; host or cells: HCT116 CMV-OsTIR1(F74G), xenografted into nude mice
Briefly: mAID-BRD4 cell xenograft tumor growth in nude mice. The format is in vivo. Here is the method:
(§4) Subsequently, mAID-BRD4 cells or TOP2A-mAC cells were subcutaneously transplanted into nude mice and xenograft tumors were formed in 1 week. After that, 0, 1, 3, and 10 mg/kg of 5-Ph-IAA were intraperitoneally administered daily for an additional week (day 7 to day 14). […] It was confirmed that, when the AID2 system is used, mAID-BRD4 and TOP2A-mAC were successfully removed in a living body of mice, causing tumor suppression.
Furthermore, 3 mg/kg of 5-Ph-IAA was orally administered to nude mice in which mAID-BRD4 cells were xenografted. FIG. 13(A) is a diagram showing an oral administration schedule of 5-Ph-IAA.

The target in another series is T6, TOP2A-mAC xenografts (Oryza sativa subsp. japonica, UniProt Q7XVM8, F74G).
T6 construct: expressed in transfected cells; host or cells: HCT116 CMV-OsTIR1(F74G), xenografted into nude mice
Briefly: TOP2A-mAC cell xenograft tumor growth in nude mice. In kind it is in vivo. The following applies: 1, 3 and 10 mg/kg intraperitoneally daily, day 7 to day 14. Here is the method: as §4

Another series concerns the target T7, mAID-EGFP reporters (Oryza sativa subsp. japonica, UniProt Q7XVM8, F74G).
T7 construct: expressed in transfected cells; host or cells: transgenic mice (organs and E13.5 embryos)
The experiment in a line: Reporter removal in transgenic mice expressing OsTIR1(F74G) and mAID-EGFP reporter. The format is in vivo. Here is the method:
In order to further confirm whether the AID2 system functioned in a living body of mice, an attempt to establish transgenic mice expressing OsTIR1(WT) or OsTIR1(F74G) together with mAID-EGFP reporters was performed. As shown in FIG. 11(A), OsTIR1(WT) was confirmed to cause embryonic lethality. In contrast, the establishment of a plurality of mouse strains expressing OsTIR1(F74G) and reporters was confirmed (refer to FIG. 11(A).
Two adult female transgenic mice from the same TG strain were used to remove reporters in a plurality of organs.
First, as shown in FIG. 11(B), the expression of reporters in the ovaries and fallopian tubes surgically removed from untreated transgenic mice was confirmed.
Subsequently, pseudo-administration is performed on one mouse and 10 mg/kg 5-ph-IAA was intraperitoneally administered to the other mouse. […] The same data was obtained for adult male mice derived from the same TG strain.
Finally, the expression of the reporter in embryos was examined to confirm a rate of removal of a target protein using the AID2 system in vivo. 5 mg/kg of 5-Ph-IAA was intraperitoneally administered to pregnant females with E13.5 embryos. As shown in FIG. 11(D), a reporter signal disappeared within 1 hour after administration and rapid removal of the reporter in vivo was confirmed.

In series [5] the test system is OsTIR1(F74A)/mAID-EGFP-NLS-expressing cells. The experiment in a line: Reversibility of the AID2 system: reporter recovery after removal of 5-Ph-IAA. In kind it is cell-based. The conditions noted are these: medium replaced with medium without 5-Ph-IAA.

`O=C(O)Cc1c[nH]c2ccc(-c3ccccc3)cc12` [5-Ph-IAA, 5-phenyl-indole 3-acetic acid]: in series [1], the “degradation of GFP (FACS) at low concentrations” value was “functioned at a considerably low concentration”. Also, the “appearance of the cell (mitotic accumulation)” value in [2] (24 hours after addition) is given as “accumulation of cells in the mitotic period was observed”. For the same compound, in [2] (24 hours after addition), the “degradation of DHC1-mAID-Clover fused protein (microscopic images)” value is listed as “degraded a DHC1-mAID-Clover fused protein”. The “degradation of DHC1 and mAID by Western blotting” value in series [2] (clones #1 to #3) is “degradation of DHC1 and mAID was confirmed”. For the same compound, the “degradation of mAID-EGFP-CENPH by Western blotting” value at mAID-EGFP-CENPH was “degradation of mAID-EGFP-CENPH was confirmed”. Moreover, the “degradation of mAID-EGFP-POLD1 by Western blotting” value at mAID-EGFP-POLD1 is recorded as “degradation of mAID-EGFP-POLD1 was confirmed”. Further, in series [3], the “change in body weight” value is “not observed”. The tumor suppression entry in [4] is given as “the tumor suppression was not observed”; on mAID-BRD4 xenografts (3 mg/kg orally), “significant tumor suppression”; at mAID-BRD4 xenografts (1, 3 and 10 mg/kg intraperitoneally daily, day 7 to day 14), “significant tumor suppression”; at TOP2A-mAC xenografts it was “a similar tendency was observed”. On mAID-EGFP reporters (5 mg/kg intraperitoneally to pregnant females with E13.5 embryos), the “time to disappearance of reporter signal in embryos” value is at most 1 h. In addition, the “expression of the reporter in organs” value at mAID-EGFP reporters (10 mg/kg intraperitoneally, 6 hours after administration, ovary, fallopian tubes, small intestine, heart, bladder, brain, adult female) was “significantly reduced”. For the same compound, the “time to full restoration of reporter expression after medium replacement” value in series [5] came to 3 h.
